The values below come from ChEMBL document CHEMBL1201862, “PubChem BioAssay data set” (2004).

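Assay format: 96-well plates, 48-hour exposure. GI50 = concentration required for 50% inhibition of growth.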 Active and inactive are the calls of the source. Cut-off read from the data, not from the text of the source: active = GI50 up to about 1.1 µM and inactive = higher.

Some test systems named below: SNB-19; SK-MEL-2; HOP-62; TK-10; RPMI-8226; HCC 2998; U-251; HT-29; HCT-116; UO-31; NCI-H522; HCT-15; SF-268; LOX IMVI; SK-OV-3; NCI-H460; SK-MEL-5.
Assay in all cases: NCI-60 cell line screen, 48 h

For the compound `O=c1ncc(F)cn1C1OC(CO)C(O)C1O` (centres undefined), the GI50 is > 18.3 µM (inactive) in the test with SNB-19; > 28.3 µM (inactive) in the test on SK-MEL-2; > 30.7 µM (inactive) in the test on HOP-62; > 69.2 µM (inactive) in the test on TK-10; 15.1 µM (inactive) with RPMI-8226; 16.9 µM (inactive) with HCC 2998. For the same compound, the GI50 in the test on U-251 is > 14.9 µM (inactive); in the test with HT-29 it was > 30.7 µM (inactive); with HCT-116, 24.4 µM (inactive); with UO-31 it was > 100 µM (inactive); in the test on NCI-H522, > 32.7 µM (inactive); with HCT-15, more than 100 µM. Also, the GI50 in the test on SF-268 was > 23.9 µM (inactive); in the test with LOX IMVI it was 16.7 µM (inactive); with SK-OV-3, > 42.6 µM (inactive); in the test with NCI-H460 it was 23.6 µM (inactive).

For the compound `CCCOC(=O)C1CCC(=O)N1C(=O)C(C)Cl` (centres undefined), the GI50 with SNB-19, in the test with SK-MEL-2, with HOP-62, in the test on TK-10, with RPMI-8226 and with HCC 2998 was > 100 µM (inactive) in each case. For the same compound, the GI50 in the test with SK-MEL-5, in the test with U-251, with HT-29, with HCT-116, in the test with UO-31 and in the test with NCI-H522 was > 100 µM (inactive) throughout. Further, the GI50 in the test on HCT-15 was more than 100 µM; in the test on SF-268 it was > 100 µM (inactive); in the test on LOX IMVI, > 100 µM (inactive); in the test with SK-OV-3, > 100 µM (inactive); in the test on NCI-H460 it was > 100 µM (inactive).

For the compound `O=C(O)CNCc1c2ccccc2[n+]([O-])c2ccccc12`, the GI50 in the test on SNB-19 was > 100 µM (inactive); in the test on SK-MEL-2, > 100 µM (inactive); with HOP-62, > 100 µM (inactive); with TK-10, > 100 µM (inactive); in the test with RPMI-8226 it was 30.8 µM (inactive); in the test with HCC 2998, 21.7 µM (inactive). The GI50 in the test on SK-MEL-5 is 48.1 µM (inactive); with U-251, > 100 µM (inactive); with HT-29 it was 57.1 µM (inactive); in the test with HCT-116 it was 20.2 µM (inactive); with UO-31, 21.1 µM (inactive); with NCI-H522, 46.1 µM (inactive). The GI50 in the test with HCT-15 is 30.8 µM; in the test with SF-268 it was 43.8 µM (inactive); with LOX IMVI, 36.6 µM (inactive); with SK-OV-3 it was > 100 µM (inactive); with NCI-H460, 72.4 µM (inactive).

For the compound `C[C@]12CC[C@H](O)CC1=CC[C@@H]1C2CC[C@]2(C)C(=O)N(N)C(=O)CC12` (some centres undefined), the GI50 with SNB-19, in the test on SK-MEL-2, in the test with HOP-62, with TK-10, in the test with RPMI-8226 and in the test on HCC 2998 was > 100 µM (inactive) in each case. Further, the GI50 in the test on SK-MEL-5, in the test on U-251, in the test on HT-29, in the test on HCT-116, in the test on UO-31 and in the test on NCI-H522 was > 100 µM (inactive) throughout. The GI50 with HCT-15 was more than 100 µM; in the test on SF-268, > 100 µM (inactive); in the test on LOX IMVI it was > 100 µM (inactive); with SK-OV-3, > 100 µM (inactive); with NCI-H460, > 100 µM (inactive).

Consider `COC(=O)CC(C(C(=O)OC)C(=O)OC)N1C(=O)OC(c2ccccc2)C1c1ccccc1` (centres undefined), for which the GI50 with SNB-19 is > 100 µM (inactive); in the test on SK-MEL-2, > 100 µM (inactive); with HOP-62, > 100 µM (inactive); in the test with TK-10 it was > 100 µM (inactive); with RPMI-8226 it was 45.6 µM (inactive); in the test with HCC 2998, 34 µM (inactive). Moreover, the GI50 in the test with SK-MEL-5 is > 100 µM (inactive); with U-251 it was 89.5 µM (inactive); with HT-29, > 100 µM (inactive); in the test on HCT-116 it was 95.9 µM (inactive); in the test with UO-31, > 100 µM (inactive); in the test with NCI-H522 it was 69.5 µM (inactive). For the same compound, the GI50 in the test on HCT-15 was 53.6 µM; in the test with SF-268, > 100 µM (inactive); with LOX IMVI, 38.9 µM (inactive); in the test with SK-OV-3 it was > 100 µM (inactive); with NCI-H460, 94.2 µM (inactive).
